Assays:
Format in all cases: in vivo
[1] = system: Amaranthus palmeri (AMAPA); assay: Post-emergence Test (glasshouse, percentage damage to the plant); details: post-emergence; 1000 g/ha unless otherwise stated; evaluated after 13 days
In short: (§1)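 Seeds sown in pots in glasshouse (24/16 °C day/night, 14 h light, 65% humidity), then sprayed with compound at 1000 g/ha unless stated, from acetone/water 50:50 with 0.5% Tween 20. Damage assessed 13 days later on five-point scale (1=0–20% to 5=81–100%).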

[2] = system: Amaranthus retoflexus (AMARE); assay: as above; details: post-emergence; 1000 g/ha unless otherwise stated; evaluated after 13 days
In short: as §1

[3] = system: Ipomoea hederacea (IPOHE); assay: as above; details: post-emergence; 1000 g/ha unless otherwise stated; evaluated after 13 days
In short: (§2)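 Seeds are sown in standard soil under controlled glasshouse conditions. The pots are then sprayed at 1000 g/ha, unless otherwise stated, with compound in acetone/water (50:50) containing 0.5% Tween 20. After 13 days further growth, percentage plant damage is scored from 1 (0-20%) to 5 (81-100%).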

Setaria faberi (SETFA) [4] = assay: as above; details: post-emergence; 1000 g/ha unless otherwise stated; evaluated after 13 days
In short: as §2

Zea mays (ZEAMX) [5] = assay: as above; details: post-emergence; 1000 g/ha unless otherwise stated; evaluated after 13 days
In short: as §2

[6] = system: Amaranthus retoflexus (AMARE); assay: Pre-emergence Test (glasshouse, percentage damage to the plant); details: 1000 g/ha unless otherwise stated, Amaranthus retoflexus
Setaria faberi (SETFA) [7] = assay: as above; details: 1000 g/ha unless otherwise stated, Setaria faberi
[8] = system: Echinochloa crus-galli (ECHCG); assay: as above; details: 1000 g/ha unless otherwise stated, Echinochloa crus-galli
[9] = system: Ipomoea hederacea (IPOHE); assay: as above; details: 1000 g/ha unless otherwise stated, Ipomoea hederacea
Zea mays (ZEAMX) [10] = assay: as above; details: 1000 g/ha unless otherwise stated, Zea mays
[11] = system: Amaranthus palmeri (AMAPA); assay: as above; details: 1000 g/ha unless otherwise stated, Amaranthus palmeri

Row | SMILES | AMAPA, percentage damage caused to the plant (five-point scale) [1] | AMARE, percentage damage caused to the plant (five-point scale) [2] | IPOHE, percentage damage caused to the plant (five-point scale) [3] | SETFA, percentage damage caused to the plant (five-point scale) (Setaria faberi (SETFA) [4]) | ZEAMX, percentage damage caused to the plant (five-point scale) (Zea mays (ZEAMX) [5]) | percentage damage to the plant, AMARE (five-point scale) [6] | percentage damage to the plant, SETFA (five-point scale) (Setaria faberi (SETFA) [7]) | percentage damage to the plant, ECHCG (five-point scale) [8] | percentage damage to the plant, IPOHE (five-point scale) [9] | percentage damage to the plant, ZEAMX (five-point scale) (Zea mays (ZEAMX) [10]) | percentage damage to the plant, AMAPA (five-point scale) [11]
1 | CCn1c(C)c(-c2cc(F)ccc2C)c(=O)c(C(=O)O)c1-c1ccc(Cl)c(Cl)c1 [Compound 222, 2-(3,4-dichlorophenyl)-1-ethyl-5-(5-fluoro-2-methyl-phenyl)-6-methyl-4-oxo-pyridine-3-carboxylic acid] | 5 (5=81-100%) | 3 (3=41-60%) | 3 (3=41-60%) | 3 (3=41-60%) | 1 (1=0-20%) | 1 (1=0-20%) | 1 (1=0-20%) | 1 (1=0-20%) | 1 (1=0-20%) | 1 (1=0-20%) | 1 (1=0-20%)
2 | CCn1c(C)c(-c2cc(OC(F)(F)F)ccc2Cl)c(=O)c(C(=O)O)c1-c1ccc(Cl)c(Cl)c1 [Compound 224, 5-[2-chloro-5-(trifluoromethoxy)phenyl]-2-(3,4-dichlorophenyl)-1-ethyl-6-methyl-4-oxo-pyridine-3-carboxylic acid] | 5 (5=81-100%) | 5 (5=81-100%) | 2 (2=21-40%) | 5 (5=81-100%) | 3 (3=41-60%) | 3 (3=41-60%) | 5 (5=81-100%) | 5 (5=81-100%) | 2 (2=21-40%) | 2 (2=21-40%) | 4 (4=61-80%)
3 | CCn1c(C)c(-c2cc(Cl)ccc2F)c(=O)c(C(=O)O)c1-c1ccc(Cl)c(Cl)c1 [Compound 229, 5-(5-chloro-2-fluoro-phenyl)-2-(3,4-dichlorophenyl)-1-ethyl-6-methyl-4-oxo-pyridine-3-carboxylic acid] | 5 (5=81-100%) | 5 (5=81-100%) | 3 (3=41-60%) | 1 (1=0-20%) | 1 (1=0-20%) | 4 (4=61-80%) | 1 (1=0-20%) | 0 | 1 (1=0-20%) | 0 | 4 (4=61-80%)
4 | CCn1c(C)c(-c2cccc3c2OC(F)(F)O3)c(=O)c(C(=O)O)c1-c1ccc(Cl)c(Cl)c1 [Compound 223, 2-(3,4-dichlorophenyl)-5-(2,2-difluoro-1,3-benzodioxol-4-yl)-1-ethyl-6-methyl-4-oxo-pyridine-3-carboxylic acid] | 5 (5=81-100%) | 5 (5=81-100%) | 1 (1=0-20%) | 3 (3=41-60%) | 1 (1=0-20%) | 1 (1=0-20%) | 3 (3=41-60%) | 1 (1=0-20%) | 0 | 1 (1=0-20%) | 3 (3=41-60%)
5 | CCn1c(C)c(-c2cc(C)ccc2C)c(=O)c(C(=O)O)c1-c1ccc(Cl)c(Cl)c1 [Compound 225, 2-(3,4-dichlorophenyl)-5-(2,5-dimethylphenyl)-1-ethyl-6-methyl-4-oxo-pyridine-3-carboxylic acid] | 5 (5=81-100%) | 4 (4=61-80%) | 1 (1=0-20%) | 1 (1=0-20%) | 1 (1=0-20%) | 0 | 0 | 1 (1=0-20%) | 0 | 0 | 0
6 | CCn1c(C)c(-c2cc(C)ccc2F)c(=O)c(C(=O)O)c1-c1ccc(Cl)c(Cl)c1 [Compound 231, 2-(3,4-dichlorophenyl)-1-ethyl-5-(2-fluoro-5-methyl-phenyl)-6-methyl-4-oxo-pyridine-3-carboxylic acid] | 5 (5=81-100%) | 5 (5=81-100%) | 3 (3=41-60%) | 3 (3=41-60%) | 1 (1=0-20%) | 3 (3=41-60%) | 4 (4=61-80%) | 2 (2=21-40%) | 0 | 0 | 4 (4=61-80%)
7 | CCn1c(C)c(-c2ccc(S(C)(=O)=O)cc2F)c(=O)c(C(=O)O)c1-c1ccc(Cl)c(Cl)c1 [Compound 239, 2-(3,4-dichlorophenyl)-1-ethyl-5-(2-fluoro-4-methylsulfonyl-phenyl)-6-methyl-4-oxo-pyridine-3-carboxylic acid] | 3 (3=41-60%) | 4 (4=61-80%) | 2 (2=21-40%) | 4 (4=61-80%) | 2 (2=21-40%) | 1 (1=0-20%) | 5 (5=81-100%) | 5 (5=81-100%) | 1 (1=0-20%) | 0 | 1 (1=0-20%)
8 | CCn1c(C)c(-c2ccnn2C)c(=O)c(C(=O)O)c1-c1ccc(Cl)c(Cl)c1 [Compound 241, 2-(3,4-dichlorophenyl)-1-ethyl-6-methyl-5-(2-methylpyrazol-3-yl)-4-oxo-pyridine-3-carboxylic acid] | 5 (5=81-100%) | 5 (5=81-100%) | 3 (3=41-60%) | 4 (4=61-80%) | 3 (3=41-60%) | 3 (3=41-60%) | 5 (5=81-100%) | 5 (5=81-100%) | 3 (3=41-60%) | 1 (1=0-20%) | 2 (2=21-40%)
